Earlier results on 2 compounds are cited in patent US20060205727A1, “Combination therapy for endothelial dysfunction, angina and diabetes” (priority 2005, published 2006).

Data set [1] relates to plasma C-reactive protein. The settings on record: acute myocardial infarction, streptokinase plus intravenous trimetazidine infusion.
The conditions of data set [2]: in vivo.

With `COc1ccc(CN2CCNCC2)c(OC)c1OC` [trimetazidine], in data set [1], the “levels of plasma C-reactive protein” value was “reduce the levels of plasma C-reactive protein”.
For `COc1ccccc1OCC(O)CN1CCN(CC(=O)Nc2c(C)cccc2C)CC1` (centres unmarked) [Ranolazine, ranolazine], in data set [2], the QT interval prolongation entry is listed as “causes QT interval prolongation”.
